This note sets out measurements from ChEMBL document CHEMBL1201862, “PubChem BioAssay data set” (2004).

The structures appear in SMILES notation.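 How tested: cells in 96-well plates exposed to compound for 48 hours at five concentrations. Here, GI50 denotes the concentration required for 50% inhibition of growth.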 The source made the active and inactive calls. Cut-off read from the data, not from the text of the source: active = GI50 up to about 1.1 µM and inactive = higher.

Holding throughout (experiment): NCI-60 cell line screen, 48 h
Assay [1] deals with Malme-3M.
Assay [2] relates to SF-295.
Assay [3] concerns SNB-19.
Assay [4] relates to HT-29.
The test system of assay [5] is COLO 205.
For assay [6], the system named is EKVX.
Assay [7] concerns NCI/ADR-RES.
The test system of assay [8] is OVCAR-5.
The subject of assay [9] is NCI-H226.
Assay [10] deals with SN12C.
The subject of assay [11] is 786-0.
Assay [12] deals with T47D.
In assay [13] the test system is TK-10.
The test system of assay [14] is M14.
The test system of assay [15] is NCI-H460.
In assay [16] the test system is MDA-N.
Assay [17] deals with A498.
The test system of assay [18] is MDA-MB-435.
Assay [19] deals with OVCAR-8.
In assay [20] the test system is HOP-92.

Regarding `COc1ccc2oc(=N)c(C(=O)Nc3cccc4ccccc34)cc2c1`, the GI50 was 8.65 µM (inactive) in [1]; 5.41 µM (inactive) in assay [2]; 13.5 µM (inactive) in assay [3]; 15.1 µM (inactive) in assay [4]; > 100 µM (inactive) in [5]; 38.1 µM (inactive) in assay [6]. The GI50 is 25.8 µM (inactive) in assay [7]; 41.3 µM (inactive) in assay [8]; 25.5 µM (inactive) in assay [9]; 37.8 µM (inactive) in assay [10]; 11.8 µM (inactive) in assay [11]; 23.6 µM (inactive) in assay [12]. Besides, the GI50 in assay [13] was 19.6 µM (inactive); in assay [14], 17.9 µM (inactive); in [15] it was 3.95 µM (inactive); in assay [16] it was 0.456 µM (active); in assay [17] it was 13.2 µM (inactive); in [18], 0.319 µM (active).

For `C=CCOC(=O)CC[C@H](NC(=O)[C@@H](CCC(F)(F)F)Cc1ccc(O)cc1)C(=O)OCC=C`, the GI50 in assay [1] was 20.2 µM (inactive); in assay [19], > 100 µM (inactive); in assay [2] it was > 100 µM (inactive); in [3], > 100 µM (inactive); in assay [4], > 100 µM (inactive); in assay [5] it was 21.3 µM (inactive). Also, the GI50 in assay [6] was 27.3 µM (inactive); in assay [7] it was > 100 µM (inactive); in assay [8], > 100 µM (inactive); in [9], > 100 µM (inactive); in [10], 45.4 µM (inactive); in [11], 86.9 µM (inactive). For the same molecule, the GI50 in assay [20] is 67.1 µM (inactive); in assay [12], 20.6 µM (inactive); in assay [14], 21.3 µM (inactive); in assay [16], 32.7 µM (inactive); in assay [18], 25.4 µM (inactive).

On to `N#Cc1c(-c2ccc(F)cc2)c(-c2ccc(F)cc2)nn(CCO)c1=O`, for which the GI50 in assay [1] is 0.743 µM (active); in assay [2], 0.224 µM (active); in [3], 4.9 µM (inactive); in assay [4], 0.143 µM (active); in assay [5], 0.24 µM (active); in assay [6], 0.47 µM (active). The GI50 in [7] is 0.805 µM (active); in assay [8], 1.82 µM (inactive); in [9], 1.77 µM (inactive); in assay [10], 0.27 µM (active); in assay [11], 0.421 µM (active); in assay [20] it was 1.91 µM (inactive). For the same molecule, the GI50 in [12] was 2.33 µM (inactive); in assay [13], 3.36 µM (inactive); in [15] it was 0.237 µM (active); in assay [16], 0.0492 µM (active); in assay [18] it was 0.0641 µM (active).

Turning to `CCn1c(=O)c2nc(SC)sc2n(-c2ccccc2)c1=S`, the GI50 in [1] is > 100 µM (inactive); in [19], 68.7 µM (inactive); in assay [2] it was > 100 µM (inactive); in assay [3] it was 89.1 µM (inactive); in [4], 47.2 µM (inactive); in assay [5], > 10 µM (inactive). For the same molecule, the GI50 was > 100 µM (inactive) in assay [6]; 44.5 µM (inactive) in assay [7]; > 100 µM (inactive) in assay [8]; 41 µM (inactive) in assay [9]; 86.9 µM (inactive) in [10]; > 100 µM (inactive) in assay [11]. Moreover, the GI50 in assay [20] was 55.5 µM (inactive); in [12], 55.7 µM (inactive); in assay [13], > 100 µM (inactive); in assay [14], 65.3 µM (inactive); in [15], 37.8 µM (inactive); in assay [16] it was 47.2 µM (inactive). In [18], the GI50 was 46.7 µM (inactive).

As to `CC1COC(c2cn[nH]c2C(N)=O)C1O` (centres undefined), the GI50 in assay [19], in [2], in assay [3], in [4], in [5] and in assay [6] was > 100 µM (inactive) throughout. Moreover, the GI50 in assay [7], in [8], in [9], in [10], in assay [11] and in assay [12] was > 100 µM (inactive) throughout. For the same molecule, the GI50 in assay [13], in assay [14], in assay [15], in assay [16], in assay [17] and in assay [18] was > 100 µM (inactive) each time.

In the case of `O=C1CS(=O)(=O)C(c2cccc(Oc3ccccc3)c2)N1c1ccc(Cl)cc1` (centres undefined), the GI50 in assay [1] is 25.4 µM (inactive); in assay [19] it was 18.8 µM (inactive); in assay [2], 26.5 µM (inactive); in assay [3], 46.7 µM (inactive); in [4], 25 µM (inactive); in assay [5], 17.7 µM (inactive). Further, the GI50 in assay [6] was 11.5 µM (inactive); in assay [7], 18.9 µM (inactive); in assay [8] it was 25.1 µM (inactive); in assay [9], 21.9 µM (inactive); in assay [10], 22.1 µM (inactive); in [11], 16.5 µM (inactive). For the same molecule, the GI50 in assay [20] was 6.14 µM (inactive); in assay [12], 10.9 µM (inactive); in [13] it was 22.6 µM (inactive); in [14] it was 18.5 µM (inactive); in assay [15] it was 15 µM (inactive); in [16], 16.8 µM (inactive). For the same molecule, the GI50 in [18] was 17.1 µM (inactive).

Regarding `O=C1C=C2CC[C@H]3[C@@H]4CC[C@H](Oc5c6ccccc6nc6ccccc56)[C@H]4CC[C@@H]3[C@H]2CC1`, the GI50 is 22.9 µM (inactive) in assay [19]; 52.4 µM (inactive) in assay [2]; > 100 µM (inactive) in assay [3]; 36.7 µM (inactive) in [4]; 42.5 µM (inactive) in assay [5]; 4.47 µM (inactive) in [6]. Moreover, the GI50 was 20.4 µM (inactive) in assay [7]; > 100 µM (inactive) in assay [8]; 60.7 µM (inactive) in assay [9]; 55.3 µM (inactive) in assay [10]; 91.2 µM (inactive) in [11]; 13.3 µM (inactive) in assay [20]. For the same molecule, the GI50 in assay [12] is 43.1 µM (inactive); in [13], 47.8 µM (inactive); in assay [14], 61.9 µM (inactive); in [15], 35.6 µM (inactive); in [16], 21.4 µM (inactive); in [18], 32.7 µM (inactive).

`Cn1nc(/C=C\C(=O)N2CC(CCl)c3c2cc(N)c2ccccc32)cc1/C=C/C(=O)N1CC(CCl)c2c1cc(N)c1ccccc21` (centres undefined): the GI50 in assay [1] is < 0.01 µM (active); in [19], < 0.01 µM (active); in assay [2], < 0.01 µM (active); in assay [3] it was < 0.01 µM (active); in assay [5], < 0.01 µM (active); in assay [6], 0.0215 µM (active). The GI50 in [7] is 0.0124 µM (active); in assay [8], < 0.01 µM (active); in [9] it was < 0.01 µM (active); in assay [10], < 0.01 µM (active); in [11], < 0.01 µM (active); in [12], < 0.01 µM (active). For the same molecule, the GI50 in assay [13], in [14], in [15], in assay [16], in assay [17] and in [18] was < 0.01 µM (active) in each case.

As for `CC(C)(C)n1c(=O)[nH]n(C2NN=Cc3cccc4cccc2c34)c1=O` (centres undefined), the GI50 was 36 µM (inactive) in assay [1]; 40.3 µM (inactive) in assay [19]; 34.9 µM (inactive) in assay [3]; 20.4 µM (inactive) in assay [4]; 30 µM (inactive) in [5]; 15.4 µM (inactive) in assay [6]. In addition, the GI50 is 32.8 µM (inactive) in [7]; 69 µM (inactive) in assay [8]; 23.2 µM (inactive) in assay [9]; 79.3 µM (inactive) in assay [10]; 57.1 µM (inactive) in [11]; 47.9 µM (inactive) in assay [12]. Also, the GI50 in [13] is 41.3 µM (inactive); in assay [14], 48 µM (inactive); in assay [15], 30.1 µM (inactive); in assay [16] it was 26.4 µM (inactive); in assay [17], 25.5 µM (inactive); in assay [18], 34.3 µM (inactive).

As to `Cc1[nH]n(-c2nc3c(c(=O)[nH]2)CCCC3)c(=O)c1CCO`, the GI50 in assay [1], in assay [19], in assay [2], in assay [3], in assay [4] and in [5] was > 100 µM (inactive) throughout. The GI50 in assay [6], in [7], in assay [8], in [9], in assay [10] and in [11] was > 100 µM (inactive) throughout. Moreover, the GI50 in assay [12], in assay [13], in assay [14], in [15], in assay [16] and in assay [17] was > 100 µM (inactive) throughout. Further, the GI50 in assay [18] is > 100 µM (inactive).

Take `C=CCNC(=S)NC=C(C(N)=O)C(N)=O`: the GI50 in [1], in assay [19], in [2], in [3], in assay [4] and in [5] was > 100 µM (inactive) throughout. The GI50 in assay [6], in assay [7], in [8], in [9], in assay [10] and in assay [11] was > 100 µM (inactive) in each case. Also, the GI50 in [12] is > 100 µM (inactive); in assay [14], > 100 µM (inactive); in assay [15] it was > 100 µM (inactive); in assay [16] it was > 100 µM (inactive); in assay [17], < 0.01 µM (active); in [18] it was > 100 µM (inactive).
